Results as given in patent US9994535B2, “Desferrithiocin polyether analogues” (University of Florida Research Foundation, Inc., priority 2005, dated 2018).

Legend:
[1] = Iron clearing efficiency in non-iron overloaded, bile duct cannulated rat model; assay type: in vivo; details: for Efficiency (%) (iron clearing efficiency): 300 μmol/kg, 24 hour iron excretion, 2:1 ligand-iron complex; for Iron clearing efficiency compared with parent drug (S)-4-(HO)-DADFT: same micromole per kilogram dose
Method: Iron Clearing Efficiency of Iron Chelators in a Non-Iron Overloaded, Bile Duct Cannulated Rat Model
Studies were performed in the non-iron overloaded, bile duct cannulated rodent model with the compounds shown below.
Briefly, male Sprague-Dawley rats averaging 450 g were housed in Nalgene plastic metabolic cages during the experimental period and given free access to water. The animals were anesthetized using sodium pentobarbital (55 mg/kg) administered intraperitoneally. The bile duct was cannulated using 22-gauge polyethylene tubing. The cannula was inserted into the duct about 1 cm from the duodenum and tied snugly in place. After threading through the shoulder, the cannula was passed from the rat to the swivel inside a metal torque-transmitting tether, which was attached to a rodent jacket around the animal's chest. The cannula was directed from the rat to a Gilson microfraction collector (Middleton, Wis.) by a fluid swivel mounted above the metabolic cage. Three hour bile samples were continuously collected for a minimum of 24 hours up to 48 hours. However, the efficiency calculations are based on the 24 hour iron excretion. The efficiency of each chelator was calculated on the basis of a 2:1 ligand-iron complex. The efficiencies in the rodent model were calculated by subtracting the iron excretion of control animals from the iron excretion of treated animals. This number was then divided by the theoretical output; the result is expressed as a percentage (Bergeron, R. J., et al., J. Med Chem. 42:95-108 (1999) the entire contents of which are incorporated herein by reference). The urine sample was taken at 24 hours and handled as previously described in Bergeron, R. J., et al., J. Med. Chem. 34:2072-2078 (1991), the entire contents of which are incorporated herein by reference.

[2] = Tissue and plasma concentrations upon subcutaneous administration to rats; assay type: in vivo; details: rat, sc 300 μmol/kg
Method: Tissue Distribution of a Polyether-Substituted (S)-4′-Hydroxydesazadesferrithiocin Analogue [(S)-4′-(HO)-DADFT-PE] Upon Subcutaneous Administration to Rats
A measurement was made assessing (S)-4′-(HO)-DADFT-PE and (S)-4′-(HO)-DADFT tissue and plasma concentrations upon subcutaneous administration at times from 2-8 h post dosing. The rats were given this compound subcutaneously at 300 μmol/kg. The tissue and plasma level were obtained as described in Bergeron et al. J Med Chem. 48:821-831 (2005), the entire contents of which are incorporated herein by reference.

CCOC(=O)[C@@]1(C)CSC(c2ccc(OCCOCCOCCOC)cc2O)=N1 [(S)-4′-(HO)-DADFT-PE EE]
Efficiency (%) (iron clearing efficiency) ([1]; s.c.): 11.4 ± 0.8%
Iron clearing efficiency compared with parent drug (S)-4-(HO)-DADFT [1]: work better than the parent drug

COCCOCCOCCOc1ccc(C2=N[C@@](C)(C(=O)OC(C)C)CS2)c(O)c1 [(S)-4′-(HO)-DADFT-PE iPrE]
Efficiency (%) (iron clearing efficiency) ([1]; p.o.): 9.2 ± 4.4%
Efficiency (%) (iron clearing efficiency) ([1]; s.c.): 25.9 ± 9.2%
Iron clearing efficiency of isopropylester vs ethyl ester ([1]; both administered subcutaneously): significantly more efficient
Iron clearing efficiency compared with parent drug (S)-4-(HO)-DADFT [1]: work better than the parent drug

C[C@]1(C(=O)O)CSC(c2ccc(O)cc2O)=N1 [(S)-4′-(HO)-DADFT, (S)-2-(2,4-dihydroxyphenyl)-4,5-dihydro-4-methyl-4-thiazolecarboxylic acid]
Brain concentration of administered compound ([2]; 2 h): 0 ± 0 nmol/g wet wt
Brain concentration of administered compound ([2]; 4 h): 0 ± 0 nmol/g wet wt
Brain concentration of administered compound ([2]; 6 h): 0 ± 0 nmol/g wet wt
Brain concentration of administered compound ([2]; 8 h): 0 ± 0 nmol/g wet wt
Heart concentration of administered compound ([2]; 2 h): 4.6 ± 3^ nmol/g wet wt
Heart concentration of administered compound ([2]; 4 h): 0 ± 0 nmol/g wet wt
Heart concentration of administered compound ([2]; 6 h): 0 ± 0 nmol/g wet wt
Heart concentration of administered compound ([2]; 8 h): 0 ± 0 nmol/g wet wt
Kidney concentration of administered compound ([2]; 2 h): 97.1 ± .50 nmol/g wet wt
Kidney concentration of administered compound ([2]; 4 h): 26.6 ± 7.1 nmol/g wet wt
Kidney concentration of administered compound ([2]; 6 h): 13.0 ± 8.0 nmol/g wet wt
Kidney concentration of administered compound ([2]; 8 h): 8.8 ± 2.9 nmol/g wet wt
Liver concentration of administered compound ([2]; 2 h): 48.3 ± 20.3 nmol/g wet wt
Liver concentration of administered compound ([2]; 4 h): 25.0 ± 3.9 nmol/g wet wt
Liver concentration of administered compound ([2]; 6 h): 19.3 ± 2.0 nmol/g wet wt
Liver concentration of administered compound ([2]; 8 h): 12.3 ± 0.8 nmol/g wet wt
Pancreas concentration of administered compound ([2]; 2 h): 5.8 ± 1.3 nmol/g wet wt
Pancreas concentration of administered compound ([2]; 4 h): 0 ± 0 nmol/g wet wt
Pancreas concentration of administered compound ([2]; 6 h): 0 ± 0 nmol/g wet wt
Pancreas concentration of administered compound ([2]; 8 h): 0 ± 0 nmol/g wet wt
concentration at 2 h ([2]; plasma, 2 h, read-out: Plasma concentration of administered compound): 13.1 ± 2.7 µM
Plasma concentration of administered compound ([2]; plasma, 4 h): 2 ± 0.4 µM
concentration at 6 h ([2]; plasma, 6 h, read-out: Plasma concentration of administered compound): 0 nM
concentration at 8 h ([2]; plasma, 8 h, read-out: Plasma concentration of administered compound): 0 nM
Efficiency (%) (iron clearing efficiency) ([1]; p.o.): 1.0 ± 0.4%
Efficiency (%) (iron clearing efficiency) ([1]; s.c.): 1.1 ± 0.6%

CC(C)OC(=O)[C@@]1(C)CSC(c2ccc(O)cc2O)=N1 [(S)-4′-(HO)-DADFT-iPrE]
Efficiency (%) (iron clearing efficiency) ([1]; s.c.): 1.98 ± 0.91%

COc1ccc(C2=N[C@@](C)(C(=O)O)CS2)c(O)c1 [(S)-4′-(CH3O)-DADFT]
Brain concentration of administered compound ([2]; 2 h): 13.2 ± 4.8 nmol/g wet wt
Brain concentration of metabolite of administered compound ([2]; 2 h): <2.4 nmol/g wet wt
Brain concentration of administered compound ([2]; 4 h): 7.4 ± 0.7 nmol/g wet wt
Brain concentration of metabolite of administered compound ([2]; 4 h): <2.4 nmol/g wet wt
Brain concentration of administered compound ([2]; 6 h): 4.8 ± 3.1 nmol/g wet wt
Brain concentration of metabolite of administered compound ([2]; 6 h): <2.4 nmol/g wet wt
Brain concentration of administered compound ([2]; 8 h): <1.6 ± 0.0 nmol/g wet wt
Brain concentration of metabolite of administered compound ([2]; 8 h): <2.4 nmol/g wet wt
Heart concentration of administered compound ([2]; 2 h): 66.2 ± 2.2 nmol/g wet wt
Heart concentration of metabolite of administered compound ([2]; 2 h): 6.4 ± 0.6 nmol/g wet wt
Heart concentration of administered compound ([2]; 4 h): 32.6 ± 3.6 nmol/g wet wt
Heart concentration of metabolite of administered compound ([2]; 4 h): <4.8 nmol/g wet wt
Heart concentration of administered compound ([2]; 6 h): 28.2 ± 0.7 nmol/g wet wt
Heart concentration of metabolite of administered compound ([2]; 6 h): <4.8 nmol/g wet wt
Heart concentration of administered compound ([2]; 8 h): 26.3 ± 9.7 nmol/g wet wt
Heart concentration of metabolite of administered compound ([2]; 8 h): <4.8 nmol/g wet wt
Kidney concentration of administered compound ([2]; 2 h): 97.5 ± 24.5 nmol/g wet wt
Kidney concentration of metabolite of administered compound ([2]; 2 h): 49.9 ± 21.3 nmol/g wet wt
Kidney concentration of administered compound ([2]; 4 h): 57.0 ± 15.5 nmol/g wet wt
Kidney concentration of metabolite of administered compound ([2]; 4 h): 23.2 ± 1.7 nmol/g wet wt
Kidney concentration of administered compound ([2]; 6 h): 67.2 ± 9.9 nmol/g wet wt
Kidney concentration of metabolite of administered compound ([2]; 6 h): 21.7 ± 6.2 nmol/g wet wt
Kidney concentration of administered compound ([2]; 8 h): 67.4 ± 19.9 nmol/g wet wt
Kidney concentration of metabolite of administered compound ([2]; 8 h): 25.3 ± 2.5 nmol/g wet wt
Liver concentration of administered compound ([2]; 2 h): 111.0 ± 14.0 nmol/g wet wt
Liver concentration of metabolite of administered compound ([2]; 2 h): 43.5 ± 4.5 nmol/g wet wt
Liver concentration of administered compound ([2]; 4 h): 73.8 ± 10.8 nmol/g wet wt
Liver concentration of metabolite of administered compound ([2]; 4 h): 24.6 ± 1.1 nmol/g wet wt
Liver concentration of administered compound ([2]; 6 h): 80.9 ± 10.7 nmol/g wet wt
Liver concentration of metabolite of administered compound ([2]; 6 h): 26.9 ± 5.1 nmol/g wet wt
Liver concentration of administered compound ([2]; 8 h): 81.4 ± 15.9 nmol/g wet wt
Liver concentration of metabolite of administered compound ([2]; 8 h): 25.0 ± 3.6 nmol/g wet wt
Pancreas concentration of administered compound ([2]; 2 h): 37.1 ± 3.8 nmol/g wet wt
Pancreas concentration of metabolite of administered compound ([2]; 2 h): 1.3 ± 2.2 nmol/g wet wt
Pancreas concentration of administered compound ([2]; 4 h): 19.4 ± 1.4 nmol/g wet wt
Pancreas concentration of metabolite of administered compound ([2]; 4 h): 0.0 ± 0.0 nmol/g wet wt
Pancreas concentration of administered compound ([2]; 6 h): 16.5 ± 4.5 nmol/g wet wt
Pancreas concentration of metabolite of administered compound ([2]; 6 h): 0.0 ± 0.0 nmol/g wet wt
Pancreas concentration of administered compound ([2]; 8 h): 9.7 ± 0.7 nmol/g wet wt
Pancreas concentration of metabolite of administered compound ([2]; 8 h): 0.0 ± 0.0 nmol/g wet wt
Plasma concentration of administered compound ([2]; plasma, 2 h): 478.8 ± 36.8 µM
Plasma concentration of metabolite of administered compound ([2]; plasma, 2 h): 8.4 ± 1.8 µM
Plasma concentration of administered compound ([2]; plasma, 4 h): 236.3 ± 42.0 µM
Plasma concentration of metabolite of administered compound ([2]; plasma, 4 h): 4.2 ± 1.0 µM
Plasma concentration of administered compound ([2]; plasma, 6 h): 142.5 ± 29.5 µM
Plasma concentration of metabolite of administered compound ([2]; plasma, 6 h): 1.8 ± 0.6 µM
Plasma concentration of administered compound ([2]; plasma, 8 h): 79.6 ± 13.3 µM
Plasma concentration of metabolite of administered compound ([2]; plasma, 8 h): 0.0 ± 0.0 µM
Efficiency (%) (iron clearing efficiency) ([1]; p.o.): 6.6 ± 2.8%
